Source: patent US20190231730A1, “TREATMENT OF A DISEASE MEDIATED BY ARACHIDONIC ACID OR AN EICOSANOID” (priority 2016, published 2019)

Legend:
[1] = test system: patients with Ankylosing Spondylitis; conditions: three patients
[2] = test system: patients suffering from Cystic Fibrosis; conditions: six patients; topical under arm pits, once monthly; 0.01-1 microgram in DMSO
Procedure: (§1) The formulation was applied under arm pits (topically) to patients suffering from Cystic Fibrosis, psoriasis, ulcerative colitis and Ankylosing Spondylitis. Six patients suffering from Cystic fibrosis were administered this formulation once monthly.

[3] = test system: patients with ulcerative colitis; conditions: one patient
patient with psoriasis = assay: Topical formulation in patients with psoriasis; conditions: approximately 30 patients
Procedure: as §1

[4] = test system: oesophageal adenocarcinoma; conditions: rat model; LTA4 hydrolase inhibitor, inhibition of LTB4 synthesis; cited from earlier work

Compound	symptoms of Ankylosing Spondylitis [1]	clinical benefit and symptoms in Cystic Fibrosis [2]	decrease in all ulcerative mediations [3] [%]	reversal of symptomatology in ulcerative colitis [3] [%]	duration of symptom-free state in psoriasis (patient with psoriasis)	healing of psoriatic lesions on skin (patient with psoriasis)	burden of oesophageal adenocarcinoma [4]
CCCCC/C=C\C/C=C\C/C=C\CC#CCCCC(=O)O [5,6-dehydro arachidonic acid]	helped them with the symptoms	significant clinical benefit and reduction of symptoms	100	100	remained symptom free for years	completely healed their psoriatic lesions	–
CC(C)C[C@H](NC(=O)[C@@H](O)[C@H](N)Cc1ccccc1)C(=O)O [bestatin]	–	–	–	–	–	–	reduced the burden of oesophageal adenocarcinoma
